Entries after “also recorded” stand apart in the source; their conditions may differ.
These substances were tested on NCI-60 cell lines.
Format: cell-based, human

| Substance | Cell Line with which the peptide (and its tripeptide motif) is associated | Cell Line (NCI-60 cell line the peptide is associated with) | Cell Line (NCI-60 cell line the peptide and its motif are associated with) | Cell Line the peptide is associated with (peptide recovered from phage library selection on this NCI-60 cell line) |
| --- | --- | --- | --- | --- |
| QVMMRGS | HL-60-Leukemia |  |  |  |
| QVRRGVV |  | HT-29 Colon |  |  |
| QWYSLRS |  | LOX-IMVI Melanoma |  |  |
| RAAGGSR | RPMI-8226-Leukemia |  |  |  |
| RAAGRVG |  | HCT-15 Colon |  |  |
| RAAGSAG |  |  | IGROV1 Ovarian |  |
| RAAVGAR | H23-Lung |  |  |  |
| RAAVIHT |  | MALME-3M Melanoma |  |  |
| RAAVSAI | Molt-4-Leukemia |  |  |  |
| RAGGGAP |  |  |  | ACHN Renal |
| RAGRDAP |  |  | UACC62 Melanoma |  |
| RAGRGFE |  |  | UACC62 Melanoma |  |
| RAGSRVQ |  | SF-295 CNS |  |  |
| RAGSRYI |  |  | SK-MEL-28 Melanoma |  |
| RAHGLVC |  |  |  | RXF393 Renal |
| RALGAAS |  |  | SK-OV-3-3 Ovarian |  |
| RALGLVS | CCRF-CEM Leukemia |  |  |  |
| RAMGGAG | RPMI-8226-Leukemia |  |  |  |
| RANGVLV | H23-Lung |  |  |  |
| RARTGGS |  | SNB-75 CNS |  |  |
| RASCALT | HL-60-Leukemia |  |  |  |
| RASCFWD |  |  |  | SN12C Renal |
| RASCVWA |  |  |  | MCF-7 Breast |
| RASCVWR |  |  | DU-145 Prostate |  |

| Substance | Cell Line with which the peptide (and its tripeptide motif) is associated | Cell Line (NCI-60 cell line the peptide is associated with) | Cell Line (NCI-60 cell line the peptide and its motif are associated with) | Cell Line the peptide is associated with (peptide recovered from phage library selection on this NCI-60 cell line) |
| --- | --- | --- | --- | --- |
| RASFRAG | SR Leukemia |  |  |  |
| RASIGIE |  |  | UACC 257 Melanoma |  |
| RASRIGL |  |  |  | TK-10 Renal |
| RASYYGV |  |  |  | RXF393 Renal |
| RAVCEWD |  |  |  | CAIK-1 Renal |
| RAVEMGT | H460-Lung |  |  |  |
| RAVERVA |  |  |  | CAIK-1 Renal |
| RAVGRQL |  |  | OVCAR-5 Ovarian |  |
| RAVGRVA | HL-60-Leukemia |  |  |  |
| RAVGYNA |  | MALME-3M Melanoma |  |  |
| RAVLELW |  |  | SK-MEL-28 Melanoma |  |
| RAVWRAS |  |  | SK-MEL-2 Melanoma |  |
| RDGAVNL |  |  | UACC 257 Melanoma |  |
| RDGRAVR |  | KM-12C Colon |  |  |
| RDGRGAG |  | SF-295 CNS |  |  |
| RDGVRVG |  | LOX-IMVI Melanoma |  |  |
| RDLAGPS |  |  | OVCAR-4 Ovarian |  |
| RDLGGRW |  |  |  | MCF-7 Breast |
| RDLRVHL |  |  | UACC62 Melanoma |  |
| REAERVS | H322-Lung |  |  |  |
| REEFAGR | SR Leukemia |  |  |  |
| REGGSDT |  |  |  | NCI/ADR-RES Breast |
| RERGAVQ | CCRF-CEM Leukemia |  |  |  |
| REVPGLR |  | SNB-19 CNS; also recorded: SF-539 CNS |  |  |

| Substance | Cell Line with which the peptide (and its tripeptide motif) is associated | Cell Line (NCI-60 cell line the peptide is associated with) | Cell Line (NCI-60 cell line the peptide and its motif are associated with) | Cell Line the peptide is associated with (peptide recovered from phage library selection on this NCI-60 cell line) |
| --- | --- | --- | --- | --- |
| RFSGGLQ |  |  | SK-MEL-28 Melanoma |  |
| RFSSRAV |  |  | IGROV1 Ovarian |  |
| RFTRSSG | A549-Lung |  |  |  |
| RFYHLRS | A549-Lung |  |  |  |
| RGARVSA | Molt-4-Leukemia |  |  |  |
| RGAVAFE | SR Leukemia |  |  |  |
| RGAVREM |  |  |  | SN12C Renal |
| RGGLPRG |  | HCT-15 Colon |  |  |
| RGGQRAS |  |  | M14 Melanoma |  |
| RGGRSPS |  | HT-29 Colon |  |  |
| RGGSDEA |  |  |  | BT-549 Breast |
| RGGSPPV |  |  |  | RXF393 Renal |
| RGLGRPV |  |  |  | NCI/ADR-RES Breast |
| RGLQGGR |  |  | SK-MEL-2 Melanoma |  |
| RGLRSVN | H226-Lung |  |  |  |
| RGLVRVV |  | COLO-205-Colon |  |  |
| RGPSQVL |  |  | PC3 Prostate |  |
| RGRGSTL |  |  |  | MDA-MB-435-Breast |
| RGRLALL |  |  | M14 Melanoma |  |
| RGRLEVP | Molt-4-Leukemia |  |  |  |
| RGRVLLP |  |  | M14 Melanoma |  |
| RGSAQNF | RPMI-8226-Leukemia |  |  |  |
| RGSFGLG |  |  |  | T-47D Breast |
| RGSHLVP | CCRF-CEM Leukemia |  |  |  |

| Substance | Cell Line with which the peptide (and its tripeptide motif) is associated | Cell Line (NCI-60 cell line the peptide is associated with) | Cell Line (NCI-60 cell line the peptide and its motif are associated with) | Cell Line the peptide is associated with (peptide recovered from phage library selection on this NCI-60 cell line) |
| --- | --- | --- | --- | --- |
| RGSLLWA |  |  | UACC 257 Melanoma |  |
| RGSPAAA |  |  |  | MDA-MB-435-Breast |
| RGSPLTK |  |  | UACC 257 Melanoma |  |
| RGSRLPA | EKVX-Lung |  |  |  |
| RGSRTGP |  | U251 CNS |  |  |
| RGSRWSS |  |  |  | BT-549 Breast |
| RGSVASA |  | HT-29 Colon |  |  |
| RGSVGPS |  | SW620-Colon |  |  |
| RGSVRVL | HL-60-Leukemia |  |  |  |
| RGSWAGV |  | HT-29 Colon |  |  |
| RGSYVER |  |  |  | BT-549 Breast |
| RGVASRS | H460-Lung |  |  |  |
| RGVFYGK | H322-Lung |  |  |  |
| RGVGAKA |  |  |  | NCI/ADR-RES Breast |
| RGVGKTK |  |  |  | MDA-MB-231 Breast |
| RGVGWAK | H322-Lung |  |  |  |
| RGVKLGD |  | SW620-Colon |  |  |
| RGVNYRS |  |  |  | RXF393 Renal |
| RGVSGRL |  |  | SK-MEL-28 Melanoma |  |
| RGVSLKG | H226-Lung |  |  |  |
| RGVVSAK | Hop-92-Lung |  |  |  |
| RGVVSGV | Hop-92-Lung |  |  |  |
| RHFGLRE | H522-Lung |  |  |  |
